# Earlier results, collected in patent US5830500A, “Low dose fluoxetine tablet” (Pentech Pharmaceuticals, Inc., priority 1996, dated 1998).
# Test system: premature ejaculation
# Details: reported
smiles,measurement,setting,value
CN(C)CCCN1c2ccccc2CCc2ccc(Cl)cc21 [clomipramine],side effects,,"weight gain, sedation, and anticholinergic effects"
same,success in managing premature ejaculation,informal use by a few practitioners,Some limited success
